Like-named read-outs stand apart in the source and are kept apart here.
What was measured:
[1] = system: THP-1 clone No. 63 (pGL2_Neo30; luciferase mRNA with three tandem AUUUA motifs of the IL-1β 3′UTR); assay: Luciferase reporter gene assay, clone No. 63 (pGL2_Neo30, with mRNA instability sequence); assay type: cell-based, human; set-up: Luciferase reporter gene assay, luciferase activity: unit not given here; settings: for Luciferase reporter gene assay, luciferase activity: clone 63; for inhibition at 1 µM: Homo sapiens, THP-1, clone No. 63
Source text: (§1) In order to obtain a vector for stable integration into THP-1 cells, a XhoI-SalI fragment of the neo resistant gene (expressing aminoglycoside 3′ phosphotransferase) derived from pMCIneo (Stratagene) is subcloned into the SalI site of pGL2Control (Promega). This resulting plasmid was called pGL2_Neo. A 30 bp fragment (containing three tandem AUUUA motifs, based on the IL-Iβ3′UTR sequence) obtained by annealing two complementary synthetic oligonucleotides (see FIG. 1) is subcloned into pGL2 Neo using the PflM1 restriction site.
(§2) The resulting vectors pGL2_Neo30 and pGL2_Neo are transfected into THP-1 cells by electroporation. 10^7 cells/ml in 1.3 mM KH2PO4, 7.36 m.M Na2HPO4, 2.44 mM KCl, 124 mm NaCl, 5 mM glucose, 9.6 μM MgCl2 and 16 μM CaCI2 pH 7.2 are transfected with 20 μg of DNA in a Bio-Rad Gene Pulser (250V, 690 μF and indefinite resistance) using a 0.4 cm cuvette. Cells are subsequently cultured in RPMI medium containing 10%FBS, 2mM L-Gln (L-glutamine), 50 μM 2mercaptoethanol and 600 μg/ml of G418 (geneticin). After transfection of pGL2_Neo30 and pGL2_Neo into THP-1 cells, stable cell lines are obtained by selection for G418 resistance and assayed for luciferase activity. One cell line of each transfection is chosen for further analysis; the pGL2_Neo30 cell line is referred to as clone No. 63 and the pGL2_Neo cell line as clone No. 53. No endogenous luciferase activity could be detected in normal THP-1 cells.
(§3) The transfected human monocytic leukemia cell lines, clones No. 53 and 63 are grown in RPMI medium supplemented with 110 U/ml penicillin, 100 μg/ml streptomycin, 2 mM L-Gln and 2 g/l NaHCO3. Heat-treated FBS (5%) is added before use. The cells are grown to a density of 5×10^5/ml and induced to differentiate with 100 U/ml (final concentration) γIFN. Three hours later, 10 μl of LPS (5 μg/ml final concentration) is added. This time point is designated time 0. Compounds are added at various times after LPS addition as indicated.
(§4) In order to adapt the system to the use of 96 well plates, cells are grown in Packard flat bottom white polystyrene microplates (Cat No.6005180) in RPMI medium lacking phenol red (AMIMED). Cells are plated at 5×10^4/well. After treatment of the cells, luciferase is measured using the Packard Luc Lite system (Cat. No.601691 1) according to the manufacturer's instructions in a final volume of 205 μl. Briefly, to a cell suspension of 5×10^5 cells/ml, γIFN (1000 U/ml Boehringer Mannheim No. 1050494) to a final concentration of 100 U/ml and 0.25% (v/v) Luc Lite Enhancer is added. After a 3 hour incubation LPS (50 μg/ml SIGMA L-8274) is added to give 5 μg/ml final concentration. The cells are then plated at 5×10^4/100 l/well into flat bottom white polystyrene microplates (Packard, Cat No. 6005180) and incubated for 16 hours. 5 μl of compound solution or control vehicle is then added and the cells are further incubated as indicated. 100 μl of luciferase substrate solution is added and the plates are covered with TopSeal-A press-on adhesive sealing film (Packard Cat.No. 6005185) before measuring luminescence with a Packard Top Count Scintillation Counter at 22° C. The luciferase signal is stable for at least 90 min.
(§5) The THP-1 cell lines, clone No. 63 (containing PGL2_Neo30) and clone No. 53 (containing pGL2-Control) are grown, differentiated and stimulated with γIFN and LPS identical to normal THP-1 cells. Radicicol analog A is added 16 hours after the addition of LPS and cell extracts are then taken 8 hours later or as indicated. Luciferase activity is inhibited by 1 μM radicicol analog A on average by 50%±17%, in some cases inhibition was as great as 93%, whereas up to 5×10^−6M of radical analog A has no effects on the control clone No. 53, FIG. 3 (solid bars indicate clone No. 53, open bars clone No. 63).
(§6) A number of radicicol analogues are tested for their activity in the reporter assay substantially as described in the previous Examples.

[2] = system: THP-1 clone No. 53 (pGL2_Neo / pGL2-Control); assay: Luciferase reporter gene assay, control clone No. 53 (no instability sequence); assay type: cell-based, human; set-up: Luciferase reporter gene assay, luciferase activity: unit not given here; settings: for Luciferase reporter gene assay, luciferase activity: clone 53
Source text: as §1, §2, §3, §4, §5, §6

IL-1β = settings: THP-1 cells activated by IFN-γ and LPS; cited from earlier work
IL-1β mRNA = settings: THP-1 cells activated by IFN-γ and LPS; cited from earlier work
IL-6 mRNA = settings: THP-1 cells activated by IFN-γ and LPS; cited from earlier work
TNF-α mRNA = settings: THP-1 cells activated by IFN-γ and LPS; cited from earlier work

Row | Effect on luciferase activity of control clone ([2]; clone No. 53, up to 5×10^−6M) | SMILES | Luciferase reporter gene assay, luciferase activity ([1]; 0.5 μM) | Luciferase reporter gene assay, luciferase activity ([1]; 1 μM) | Luciferase reporter gene assay, luciferase activity ([1]; 5 μM) | Luciferase reporter gene assay, luciferase activity ([2]; 0.5 μM) | Luciferase reporter gene assay, luciferase activity ([2]; 1 μM) | Luciferase reporter gene assay, luciferase activity ([2]; 5 μM) | inhibition at 1 µM ([1]; 1 μM, added 16 h after LPS, extracts 8 h later, read-out: Inhibition of luciferase activity, on average) [%] | inhibition at 1 µM ([1]; 1 μM, read-out: Inhibition of luciferase activity, greatest inhibition in some cases) [%] | Secretion of IL-1β (IL-1β) | Time of degradation of IL-1β mRNA to undetectable levels (IL-1β mRNA) [h] | Time of degradation of IL-6 mRNA to undetectable levels (IL-6 mRNA) [h] | Time of degradation of TNF-α mRNA to undetectable levels (TNF-α mRNA) [h]
1 |  | COc1cc(O)c2c(c1)/C=C/CC(O)C(O)C(=O)/C=C\CC(C)OC2=O (stereo not shown) | 97 | 88 | 87 | 114 | 105 | 107 |  |  |  |  |  | 
2 |  | C[C@@H]1C[C@H]2O[C@@H]2/C=C\C=C\C(=O)Cc2c(Cl)c(O)cc(O)c2C(=O)O1 | 42 | 18 | 3 | 68 | 51 | 40 |  |  |  |  |  | 
3 |  | C[C@@H]1C[C@H]2O[C@@H]2CCCCC(=O)Cc2c(Cl)c(O)cc(O)c2C(=O)O1 | 88 | 64 | 57 | 99 | 77 | 69 |  |  |  |  |  | 
4 |  | C[C@@H]1C[C@H]2O[C@@H]2CCCCC(=O)Cc2cc(O)cc(O)c2C(=O)O1 | 80 | 66 | 61 | 83 | 81 | 70 |  |  |  |  |  | 
5 |  | COc1cc(O)c2c(c1)/C=C/CC(O)C(O)C(=O)CCCC(C)OC2=O (stereo not shown) | 107 | 93 | 70 | 103 | 122 | 104 |  |  |  |  |  | 
6 |  | COc1cc(O)c2c(c1OC)/C=C/C[C@H](O)[C@H](O)C(=O)/C=C/C[C@H](C)OC2=O | 96 | 94 | 7 | 97 | 91 | 55 |  |  |  |  |  | 
7 |  | COc1cc(O)c2c(c1OC)/C=C/C[C@H](O)[C@H](O)C(=O)/C=C\C[C@H](C)OC2=O [drawing 13] | 69 | 32 | 9 | 136 | 140 | 108 |  |  |  |  |  | 
8 | no effects | COc1cc(O)c2c(c1OC)/C=C/C[C@H](O)[C@H](O)C(=O)/C=C\C[C@H](C)OC2=O [radicicol analog A] |  |  |  |  |  |  | 50 | 93 | inhibited the secretion of IL-1β | 5 to 8 | 5 to 8 | 5 to 8
